Type in all cases: in vivo
For experiment [1], the system named is Echinochloa crus-galli var. crus-galli. Put plainly: Test Example 3: herbicidal effect by application to foliage (Wagner pot, water depth 0.1-0.5 cm). As to conditions: Nineteenth Table; application to foliage; application herbicide amount 320 g/ha. Summed up: (§1)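 Grading uses six bands of herbicidal ratio, from 0 (≤5%, almost no effect) to 5 (≥90%, almost completely withered). Treatment was a stem-and-leaf spray of diluted emulsion at a fixed g/ha on 14-day-old plants; evaluation after three weeks.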

Another experiment has as its system Cyperus difformis. The description is as above. The note with it: Nineteenth Table; application to foliage; application herbicide amount 320 g/ha. A digest of the protocol:
as §1

The next experiment concerns Leptochloa chinensis. The experiment is described as above. The note with it: Nineteenth Table; application to foliage; application herbicide amount 320 g/ha. A digest of the protocol: as §1
The subject of another experiment is Veronica persica. Put plainly: Test Example 4: herbicidal effect by application to foliage (diluvial soil, plastic box). The note with it: foliage application. Summed up:
(§2)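 Seeds sown in sterilized diluvial soil, covered ~1.5 cm, grown 14 days in greenhouse at 25° C. to 30° C. Emulsion formulation diluted in water to set rate (g/ha) and sprayed onto stems and leaves. Effect scored visually 3 weeks later on 0–5 scale (5 = ≥90% herbicidal ratio, 0 = ≤5%).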

Another experiment concerns Setaria viridis. The experiment is described as above. As to conditions: foliage application. Summed up: as §2
In a further experiment the test system is Digitaria ciliaris. Described as above. The note with it: foliage application. A digest of the protocol: as §2
The next experiment relates to Apera spica-venti. The experiment is described as above. The note with it: foliage application. Summed up: as §2
The next experiment has as its system Abutilon theophrasti. Described as above. As to conditions: foliage application. Summed up:
as §2

In a further experiment the test system is Amaranthus retroflexus. The experiment is described as above. As to conditions: foliage application. Summed up:
as §2

Another experiment concerns Alopecurus myosuroides. The description is as above. The note with it: foliage application. A digest of the protocol:
as §2

For another experiment, the system named is Chenopodium album. Described as above. As to conditions: foliage application. A digest of the protocol:
as §2

For another experiment, the system named is Stellaria media. The description is as above. As to conditions: foliage application. A digest of the protocol:
as §2

Where [2] appears, read: Application herbicide amount 320 g/ha.

From patent US9708314B2, “Heterocyclic amide compound” (NISSAN CHEMICAL INDUSTRIES, LTD., priority 2013, dated 2017) come the findings set out here.

Consider `COCCNc1nnc2c(C(=O)Nc3nnc(C)o3)ccc(C(F)(F)F)n12` [1-109], for which the “H (herbicidal effect grade)” value in [1] is reported as 5 (Herbicidal ratio of 90% or more (almost completely withered)). In the experiment with Cyperus difformis, the “E (herbicidal effect grade)” value was 3 (Herbicidal ratio of 40% or more and less than 70%). Also, in the experiment with Leptochloa chinensis, the “D (herbicidal effect grade)” value is 5 (Herbicidal ratio of 90% or more (almost completely withered)). Also, the “R (Veronica persica) herbicidal effect grade” value in the experiment on Veronica persica (setting [2]) is 4 (Herbicidal ratio of 70% or more and less than 90%). The “G (Setaria viridis) herbicidal effect grade” value in the experiment with Setaria viridis (setting [2]) was 3 (Herbicidal ratio of 40% or more and less than 70%). In the experiment with Digitaria ciliaris (setting [2]), the “F (Digitaria ciliaris) herbicidal effect grade” value was 4 (Herbicidal ratio of 70% or more and less than 90%). In addition, in the experiment with Apera spica-venti. (setting [2]), the “L (Apera spica-venti.) herbicidal effect grade” value is reported as 0 (Herbicidal ratio of 5% or less (almost no effect)). Further, the “M (Abutilon theophrasti) herbicidal effect grade” value in the experiment on Abutilon theophrasti (setting [2]) was 4 (Herbicidal ratio of 70% or more and less than 90%). Also, the “N (Amaranthus retroflexus) herbicidal effect grade” value with Amaranthus retroflexus (setting [2]) is 4 (Herbicidal ratio of 70% or more and less than 90%). In addition, in the experiment with Alopecurus myosuroides (setting [2]), the “J (Alopecurus myosuroides) herbicidal effect grade” value is recorded as 0 (Herbicidal ratio of 5% or less (almost no effect)). The “O (Chenopodium album) herbicidal effect grade” value with Chenopodium album (setting [2]) was 5 (Herbicidal ratio of 90% or more (almost completely withered)). For the same compound, the “P (Stellaria media) herbicidal effect grade” value in the experiment with Stellaria media (setting [2]) was 4 (Herbicidal ratio of 70% or more and less than 90%).

Consider `CC(C)[S+]([O-])c1nnc2c(C(=O)Nc3nnnn3C)ccc(C(F)(F)F)n12` (stereo not drawn) [2-032], for which the “H (herbicidal effect grade)” value in [1] is given as 5 (Herbicidal ratio of 90% or more (almost completely withered)). The “E (herbicidal effect grade)” value in the experiment on Cyperus difformis is given as 5 (Herbicidal ratio of 90% or more (almost completely withered)). The “D (herbicidal effect grade)” value in the experiment with Leptochloa chinensis is given as 5 (Herbicidal ratio of 90% or more (almost completely withered)). Besides, in the experiment on Veronica persica (320 g/ha), the “R (Veronica persica) herbicidal effect grade” value was 5 (Herbicidal ratio of 90% or more (almost completely withered)). Also, the “G (Setaria viridis) herbicidal effect grade” value in the experiment with Setaria viridis (320 g/ha) is 5 (Herbicidal ratio of 90% or more (almost completely withered)). Further, the “F (Digitaria ciliaris) herbicidal effect grade” value in the experiment with Digitaria ciliaris (320 g/ha) is given as 5 (Herbicidal ratio of 90% or more (almost completely withered)). Also, the “L (Apera spica-venti.) herbicidal effect grade” value in the experiment on Apera spica-venti. (320 g/ha) is 5 (Herbicidal ratio of 90% or more (almost completely withered)). In addition, the “M (Abutilon theophrasti) herbicidal effect grade” value in the experiment on Abutilon theophrasti (320 g/ha) is 5 (Herbicidal ratio of 90% or more (almost completely withered)). The “N (Amaranthus retroflexus) herbicidal effect grade” value with Amaranthus retroflexus (320 g/ha) is listed as 5 (Herbicidal ratio of 90% or more (almost completely withered)). For the same compound, in the experiment on Alopecurus myosuroides (320 g/ha), the “J (Alopecurus myosuroides) herbicidal effect grade” value is 3 (Herbicidal ratio of 40% or more and less than 70%). In addition, the “O (Chenopodium album) herbicidal effect grade” value in the experiment on Chenopodium album (320 g/ha) is on record as 5 (Herbicidal ratio of 90% or more (almost completely withered)). Also, in the experiment with Stellaria media (320 g/ha), the “P (Stellaria media) herbicidal effect grade” value is 5 (Herbicidal ratio of 90% or more (almost completely withered)).

Consider `COc1ccc(-c2nnc3c(C(=O)Nc4nnco4)ccc(C(F)(F)F)n23)cc1` [1-149], for which the “H (herbicidal effect grade)” value in [1] was 5 (Herbicidal ratio of 90% or more (almost completely withered)). For the same compound, the “E (herbicidal effect grade)” value in the experiment with Cyperus difformis is reported as 5 (Herbicidal ratio of 90% or more (almost completely withered)). Further, the “D (herbicidal effect grade)” value in the experiment on Leptochloa chinensis is reported as 5 (Herbicidal ratio of 90% or more (almost completely withered)). Further, the “R (Veronica persica) herbicidal effect grade” value with Veronica persica (setting [2]) is 5 (Herbicidal ratio of 90% or more (almost completely withered)). Besides, the “G (Setaria viridis) herbicidal effect grade” value in the experiment on Setaria viridis (setting [2]) is 3 (Herbicidal ratio of 40% or more and less than 70%). In addition, in the experiment on Digitaria ciliaris (setting [2]), the “F (Digitaria ciliaris) herbicidal effect grade” value is 4 (Herbicidal ratio of 70% or more and less than 90%). Moreover, in the experiment with Apera spica-venti. (setting [2]), the “L (Apera spica-venti.) herbicidal effect grade” value was 2 (Herbicidal ratio of 20% or more and less than 40%). Moreover, the “M (Abutilon theophrasti) herbicidal effect grade” value with Abutilon theophrasti (setting [2]) was 3 (Herbicidal ratio of 40% or more and less than 70%). Besides, in the experiment on Amaranthus retroflexus (setting [2]), the “N (Amaranthus retroflexus) herbicidal effect grade” value was 3 (Herbicidal ratio of 40% or more and less than 70%). Further, the “J (Alopecurus myosuroides) herbicidal effect grade” value in the experiment with Alopecurus myosuroides (setting [2]) was 1 (Herbicidal ratio of 5% or more and less than 20%). Further, the “O (Chenopodium album) herbicidal effect grade” value with Chenopodium album (setting [2]) is reported as 5 (Herbicidal ratio of 90% or more (almost completely withered)). The “P (Stellaria media) herbicidal effect grade” value in the experiment on Stellaria media (setting [2]) is listed as 5 (Herbicidal ratio of 90% or more (almost completely withered)).

Consider `Cn1nnnc1NC(=O)c1ccc(C(F)(F)F)n2c(C[S+](C)[O-])nnc12` (stereo not drawn) [2-033], for which the “H (herbicidal effect grade)” value in [1] is reported as 5 (Herbicidal ratio of 90% or more (almost completely withered)). Also, the “E (herbicidal effect grade)” value in the experiment on Cyperus difformis is 5 (Herbicidal ratio of 90% or more (almost completely withered)). Also, the “D (herbicidal effect grade)” value in the experiment with Leptochloa chinensis was 5 (Herbicidal ratio of 90% or more (almost completely withered)). Besides, the “R (Veronica persica) herbicidal effect grade” value in the experiment with Veronica persica (320 g/ha) is reported as 5 (Herbicidal ratio of 90% or more (almost completely withered)). Also, the “G (Setaria viridis) herbicidal effect grade” value in the experiment with Setaria viridis (320 g/ha) was 5 (Herbicidal ratio of 90% or more (almost completely withered)). In addition, the “F (Digitaria ciliaris) herbicidal effect grade” value in the experiment on Digitaria ciliaris (320 g/ha) is listed as 5 (Herbicidal ratio of 90% or more (almost completely withered)). The “L (Apera spica-venti.) herbicidal effect grade” value in the experiment with Apera spica-venti. (320 g/ha) was 5 (Herbicidal ratio of 90% or more (almost completely withered)). Besides, the “M (Abutilon theophrasti) herbicidal effect grade” value in the experiment on Abutilon theophrasti (320 g/ha) is reported as 5 (Herbicidal ratio of 90% or more (almost completely withered)). Further, the “N (Amaranthus retroflexus) herbicidal effect grade” value in the experiment with Amaranthus retroflexus (320 g/ha) is recorded as 5 (Herbicidal ratio of 90% or more (almost completely withered)). In addition, in the experiment on Alopecurus myosuroides (320 g/ha), the “J (Alopecurus myosuroides) herbicidal effect grade” value was 4 (Herbicidal ratio of 70% or more and less than 90%). The “O (Chenopodium album) herbicidal effect grade” value in the experiment with Chenopodium album (320 g/ha) is listed as 5 (Herbicidal ratio of 90% or more (almost completely withered)). Also, in the experiment on Stellaria media (320 g/ha), the “P (Stellaria media) herbicidal effect grade” value is 5 (Herbicidal ratio of 90% or more (almost completely withered)).

As for `CCC(CC)c1nnc2c(C(=O)Nc3nnco3)ccc(C(F)(F)F)n12` [1-145], the “H (herbicidal effect grade)” value in [1] was 5 (Herbicidal ratio of 90% or more (almost completely withered)). For the same compound, the “E (herbicidal effect grade)” value in the experiment on Cyperus difformis is 5 (Herbicidal ratio of 90% or more (almost completely withered)). For the same compound, the “D (herbicidal effect grade)” value with Leptochloa chinensis is given as 5 (Herbicidal ratio of 90% or more (almost completely withered)). Further, the “R (Veronica persica) herbicidal effect grade” value in the experiment with Veronica persica (setting [2]) is reported as 5 (Herbicidal ratio of 90% or more (almost completely withered)). Also, the “G (Setaria viridis) herbicidal effect grade” value in the experiment on Setaria viridis (setting [2]) was 4 (Herbicidal ratio of 70% or more and less than 90%). The “F (Digitaria ciliaris) herbicidal effect grade” value in the experiment on Digitaria ciliaris (setting [2]) is reported as 5 (Herbicidal ratio of 90% or more (almost completely withered)). The “L (Apera spica-venti.) herbicidal effect grade” value with Apera spica-venti. (setting [2]) was 3 (Herbicidal ratio of 40% or more and less than 70%). Further, the “M (Abutilon theophrasti) herbicidal effect grade” value in the experiment with Abutilon theophrasti (setting [2]) is 3 (Herbicidal ratio of 40% or more and less than 70%). For the same compound, the “N (Amaranthus retroflexus) herbicidal effect grade” value in the experiment with Amaranthus retroflexus (setting [2]) was 4 (Herbicidal ratio of 70% or more and less than 90%). Also, in the experiment on Alopecurus myosuroides (setting [2]), the “J (Alopecurus myosuroides) herbicidal effect grade” value was 1 (Herbicidal ratio of 5% or more and less than 20%). The “O (Chenopodium album) herbicidal effect grade” value with Chenopodium album (setting [2]) is 5 (Herbicidal ratio of 90% or more (almost completely withered)). The “P (Stellaria media) herbicidal effect grade” value in the experiment on Stellaria media (setting [2]) is 5 (Herbicidal ratio of 90% or more (almost completely withered)).

`O=C(Nc1nnco1)c1ccc(C(F)(F)F)n2c(C3CC3)nnc12` [1-144]: the “H (herbicidal effect grade)” value in experiment [1] was 5 (Herbicidal ratio of 90% or more (almost completely withered)). Besides, the “E (herbicidal effect grade)” value in the experiment with Cyperus difformis was 2 (Herbicidal ratio of 20% or more and less than 40%). The “D (herbicidal effect grade)” value with Leptochloa chinensis was 4 (Herbicidal ratio of 70% or more and less than 90%). Besides, the “R (Veronica persica) herbicidal effect grade” value with Veronica persica (setting [2]) was 4 (Herbicidal ratio of 70% or more and less than 90%). In addition, the “G (Setaria viridis) herbicidal effect grade” value with Setaria viridis (setting [2]) is 2 (Herbicidal ratio of 20% or more and less than 40%). Besides, the “F (Digitaria ciliaris) herbicidal effect grade” value with Digitaria ciliaris (setting [2]) is 3 (Herbicidal ratio of 40% or more and less than 70%). The “L (Apera spica-venti.) herbicidal effect grade” value in the experiment with Apera spica-venti. (setting [2]) is recorded as 0 (Herbicidal ratio of 5% or less (almost no effect)). In addition, the “M (Abutilon theophrasti) herbicidal effect grade” value in the experiment with Abutilon theophrasti (setting [2]) was 2 (Herbicidal ratio of 20% or more and less than 40%). For the same compound, in the experiment with Amaranthus retroflexus (setting [2]), the “N (Amaranthus retroflexus) herbicidal effect grade” value was 4 (Herbicidal ratio of 70% or more and less than 90%). In the experiment with Alopecurus myosuroides (setting [2]), the “J (Alopecurus myosuroides) herbicidal effect grade” value is 1 (Herbicidal ratio of 5% or more and less than 20%). For the same compound, in the experiment on Chenopodium album (setting [2]), the “O (Chenopodium album) herbicidal effect grade” value is listed as 5 (Herbicidal ratio of 90% or more (almost completely withered)). The “P (Stellaria media) herbicidal effect grade” value in the experiment on Stellaria media (setting [2]) is given as 5 (Herbicidal ratio of 90% or more (almost completely withered)).
